± gives the expanded uncertainty stated by the source.
What was measured:
[1] = 100 kPa, Liquid; for viscosity: Capillary tube (Ostwald / Ubbelohde) method; for speed of sound: Frequency=3 MHz, Sing-around technique in a fixed-path interferometer; for mass density: Vibrating tube method
[2] = refractive index (Na D-line) (dimensionless); details: 100 kPa, Liquid, Standard Abbe refractometry
[3] = xn = mol fraction of the nth substance listed; details: 100 kPa, Liquid, x2 = 0; for viscosity: Capillary tube (Ostwald / Ubbelohde) method; for speed of sound: Frequency=3 MHz, Sing-around technique in a fixed-path interferometer; for mass density: Vibrating tube method
[4] = refractive index (Na D-line) (dimensionless); xn = mol fraction of the nth substance listed; details: 100 kPa, Liquid, Standard Abbe refractometry, x2 = 0

**Q.** For CCC(C)O (stereo not drawn) [butan-2-ol], which viscosity ([1]; 283.15 K) is on record?
**A.** Its viscosity is 5.652 ± 0.12 mPa·s.

**Q.** And the speed of sound ([1]; 283.15 K)?
**A.** The speed of sound was 1266 ± 1.3 m/s.

**Q.** And the mass density ([1]; 283.15 K)?
**A.** Its mass density is 814.99 ± 0.24 kg/m3.

**Q.** And the viscosity ([1]; 298.15 K)?
**A.** Its viscosity is 3.07 ± 0.064 mPa·s.

**Q.** What about the speed of sound ([1]; 298.15 K) of the same molecule?
**A.** Its speed of sound is 1212.2 ± 1.3 m/s.

**Q.** What about the mass density ([1]; 298.15 K) of the same molecule?
**A.** The mass density was 802.71 ± 0.24 kg/m3.

**Q.** What about the viscosity ([1]; 313.15 K) of the same molecule?
**A.** The viscosity was 1.796 ± 0.037 mPa·s.

**Q.** What about the speed of sound ([1]; 313.15 K) of the same molecule?
**A.** The speed of sound was 1157.6 ± 1.2 m/s.

**Q.** And the mass density ([1]; 313.15 K)?
**A.** The mass density was 789.86 ± 0.24 kg/m3.

**Q.** And the refractive index ([2]; 283.15 K)?
**A.** The refractive index was 1.40126 ± 0.00033.

**Q.** What about the refractive index ([2]; 298.15 K) of the same molecule?
**A.** Its refractive index is 1.39515 ± 0.00033.

**Q.** And the refractive index ([2]; 313.15 K)?
**A.** The refractive index was 1.38878 ± 0.00033.

**Q.** For CCC(C)O (stereo not drawn) [butan-2-ol] + CC(=O)N(C)C, which viscosity ([3]; 283.15 K) is on record?
**A.** Its viscosity is 5.652 ± 0.12 mPa·s.

**Q.** And the speed of sound ([3]; 283.15 K)?
**A.** Its speed of sound is 1266 ± 1.3 m/s.

**Q.** What about the mass density ([3]; 283.15 K) of the same molecule?
**A.** Its mass density is 814.99 ± 0.24 kg/m3.

**Q.** What about the viscosity ([3]; 298.15 K) of the same molecule?
**A.** Its viscosity is 3.07 ± 0.064 mPa·s.

**Q.** And the speed of sound ([3]; 298.15 K)?
**A.** The speed of sound was 1212.2 ± 1.3 m/s.

**Q.** And the mass density ([3]; 298.15 K)?
**A.** The mass density was 802.71 ± 0.24 kg/m3.

**Q.** And the viscosity ([3]; 313.15 K)?
**A.** The viscosity was 1.796 ± 0.037 mPa·s.

**Q.** And the speed of sound ([3]; 313.15 K)?
**A.** Its speed of sound is 1157.6 ± 1.2 m/s.

**Q.** And the mass density ([3]; 313.15 K)?
**A.** The mass density was 789.86 ± 0.24 kg/m3.

**Q.** And the refractive index ([4]; 283.15 K)?
**A.** Its refractive index is 1.40126 ± 0.00033.

**Q.** And the refractive index ([4]; 298.15 K)?
**A.** Its refractive index is 1.39515 ± 0.00033.

**Q.** And the refractive index ([4]; 313.15 K)?
**A.** Its refractive index is 1.38878 ± 0.00033.

**Q.** Which viscosity ([1]; 283.15 K) does the source give for CC(C)O [propan-2-ol] here?
**A.** The viscosity was 3.306 ± 0.069 mPa·s.

**Q.** And the speed of sound ([1]; 283.15 K)?
**A.** Its speed of sound is 1191.9 ± 1.2 m/s.

**Q.** What about the mass density ([1]; 283.15 K) of the same molecule?
**A.** Its mass density is 793.41 ± 0.24 kg/m3.

**Q.** What about the viscosity ([1]; 298.15 K) of the same molecule?
**A.** Its viscosity is 2.051 ± 0.043 mPa·s.

**Q.** What about the speed of sound ([1]; 298.15 K) of the same molecule?
**A.** Its speed of sound is 1139.2 ± 1.2 m/s.

**Q.** And the mass density ([1]; 298.15 K)?
**A.** Its mass density is 781.07 ± 0.24 kg/m3.

**Q.** What about the viscosity ([1]; 313.15 K) of the same molecule?
**A.** Its viscosity is 1.334 ± 0.028 mPa·s.

**Q.** What about the speed of sound ([1]; 313.15 K) of the same molecule?
**A.** The speed of sound was 1086.6 ± 1.2 m/s.

**Q.** And the mass density ([1]; 313.15 K)?
**A.** Its mass density is 768 ± 0.24 kg/m3.

**Q.** And the refractive index ([2]; 283.15 K)?
**A.** The refractive index was 1.38149 ± 0.00033.

**Q.** What about the refractive index ([2]; 298.15 K) of the same molecule?
**A.** Its refractive index is 1.37505 ± 0.00033.

**Q.** And the refractive index ([2]; 313.15 K)?
**A.** Its refractive index is 1.36829 ± 0.00033.

**Q.** For CC(C)O [propan-2-ol] + CC(=O)N(C)C, which viscosity ([3]; 283.15 K) is on record?
**A.** The viscosity was 3.306 ± 0.069 mPa·s.

**Q.** And the speed of sound ([3]; 283.15 K)?
**A.** Its speed of sound is 1191.9 ± 1.2 m/s.

**Q.** And the mass density ([3]; 283.15 K)?
**A.** The mass density was 793.41 ± 0.24 kg/m3.

**Q.** What about the viscosity ([3]; 298.15 K) of the same molecule?
**A.** Its viscosity is 2.051 ± 0.043 mPa·s.

**Q.** What about the speed of sound ([3]; 298.15 K) of the same molecule?
**A.** Its speed of sound is 1139.2 ± 1.2 m/s.

**Q.** And the mass density ([3]; 298.15 K)?
**A.** The mass density was 781.07 ± 0.24 kg/m3.

**Q.** What about the viscosity ([3]; 313.15 K) of the same molecule?
**A.** Its viscosity is 1.334 ± 0.028 mPa·s.

**Q.** And the speed of sound ([3]; 313.15 K)?
**A.** Its speed of sound is 1086.6 ± 1.2 m/s.

**Q.** What about the mass density ([3]; 313.15 K) of the same molecule?
**A.** Its mass density is 768 ± 0.24 kg/m3.

**Q.** And the refractive index ([4]; 283.15 K)?
**A.** Its refractive index is 1.38149 ± 0.00033.

**Q.** And the refractive index ([4]; 298.15 K)?
**A.** Its refractive index is 1.37505 ± 0.00033.

**Q.** And the refractive index ([4]; 313.15 K)?
**A.** Its refractive index is 1.36829 ± 0.00033.
